Where a SMILES comes first, the peptide text is derived from it.
Test: Peptide hydrogel formation, vial-inverting method
Type: physicochemical
Set-up: key to EXP / GELATION: 0: no hydrogel; 1: hydrogel
Details: 30 mM peptide in ultrapure water; pH adjusted to 6.5-8.5 with 1 N NaOH, ultrasonication, standing 48 h; vial-inverting method; concentration raised 30/60/90/120 mM until gelation
Summary of the method: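 Tetrapeptides dissolved in ultrapure water at 30 mM, pH brought to 6.5–8.5 with 1 N NaOH stepwise with brief ultrasonication, then left 48 h. Gel defined as self-supporting and non-flowing on vial inversion; non-gelling peptides retested at 60, 90 and 120 mM.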

Row | Compound | State
1 | CC(C)C[C@H](NC(=O)[C@@H](NC(=O)[C@@H](N)CC(C)C)[C@@H](C)O)C(=O)N[C@@H](Cc1ccccc1)C(=O)O [LTLF] (H-LTLF-OH) | gel
2 | N[C@@H](CO)C(=O)N[C@@H](Cc1ccc(O)cc1)C(=O)N[C@@H](Cc1ccccc1)C(=O)N[C@@H](Cc1ccccc1)C(=O)O [SYFF] (H-SYFF-OH) | gel
3 | CSCC[C@H](NC(=O)[C@@H](N)Cc1ccccc1)C(=O)N[C@@H](CC(C)C)C(=O)N[C@@H](Cc1ccccc1)C(=O)O [FMLF] (H-FMLF-OH) | gel
4 | CC(C)[C@H](NC(=O)CN)C(=O)N[C@@H](Cc1ccccc1)C(=O)N[C@@H](Cc1ccc(O)cc1)C(=O)O [GVFY] (H-GVFY-OH) | gel
5 | CC[C@H](C)[C@H](NC(=O)[C@@H](NC(=O)[C@@H](N)Cc1ccccc1)C(C)C)C(=O)N[C@@H](Cc1ccc(O)cc1)C(=O)O [FVIY] (H-FVIY-OH) | gel
6 | CC(C)C[C@H](NC(=O)[C@H](CC(C)C)NC(=O)[C@@H](N)CC(C)C)C(=O)N[C@@H](CO)C(=O)O [LLLS] (H-LLLS-OH) | gel
7 | CC[C@H](C)[C@H](N)C(=O)N[C@@H](CCSC)C(=O)N[C@H](C(=O)N[C@H](C(=O)O)C(C)C)C(C)C [IMVV] (H-IMVV-OH) | gel
8 | CC(C)C[C@H](N)C(=O)N[C@H](C(=O)N[C@@H](Cc1c[nH]cn1)C(=O)N[C@@H](Cc1ccccc1)C(=O)O)C(C)C [LVHF] (H-LVHF-OH) | gel
9 | N[C@@H](Cc1ccccc1)C(=O)N[C@@H](Cc1ccccc1)C(=O)N[C@@H](Cc1ccc(O)cc1)C(=O)N[C@@H](Cc1ccc(O)cc1)C(=O)O [FFYY] (H-FFYY-OH) | gel

Same assay, conditions: 60 mM peptide in ultrapure water; pH 6.5-8.5 (1 N NaOH), ultrasonication, standing 48 h; vial-inverting method; no gel at 30 mM

Row | Compound | State
10 | C[C@H](NC(=O)[C@@H](N)CO)C(=O)N[C@@H](Cc1c[nH]c2ccccc12)C(=O)N[C@@H](Cc1ccccc1)C(=O)O [SAWF] (H-SAWF-OH) | gel
11 | C[C@H](NC(=O)[C@@H](N)Cc1c[nH]c2ccccc12)C(=O)N[C@@H](Cc1ccccc1)C(=O)N[C@@H](Cc1ccc(O)cc1)C(=O)O [WAFY] (H-WAFY-OH) | gel
12 | CC[C@H](C)[C@H](N)C(=O)N[C@@H](Cc1ccccc1)C(=O)N[C@H](C(=O)N[C@@H](Cc1ccc(O)cc1)C(=O)O)[C@@H](C)CC [IFIY] (H-IFIY-OH) | gel
13 | C[C@@H](O)[C@H](NC(=O)[C@@H](N)CO)C(=O)N[C@@H](Cc1ccc(O)cc1)C(=O)N[C@@H](Cc1ccccc1)C(=O)O [STYF] (H-STYF-OH) | gel

Same assay, conditions: concentration at which the state was recorded: lowest of 30, 60, 90, 120 mM that gave a gel; 120 mM for non-gelating peptides

Row | Compound | Concentration [µM]
14 | C[C@H](NC(=O)[C@@H](N)CO)C(=O)N[C@@H](Cc1c[nH]c2ccccc12)C(=O)N[C@@H](Cc1ccccc1)C(=O)O [SAWF] (H-SAWF-OH) | 60000
15 | CC(C)C[C@H](NC(=O)[C@@H](NC(=O)[C@@H](N)CC(C)C)[C@@H](C)O)C(=O)N[C@@H](Cc1ccccc1)C(=O)O [LTLF] (H-LTLF-OH) | 30000
16 | N[C@@H](CO)C(=O)N[C@@H](Cc1ccc(O)cc1)C(=O)N[C@@H](Cc1ccccc1)C(=O)N[C@@H](Cc1ccccc1)C(=O)O [SYFF] (H-SYFF-OH) | 30000
17 | CSCC[C@H](NC(=O)[C@@H](N)Cc1ccccc1)C(=O)N[C@@H](CC(C)C)C(=O)N[C@@H](Cc1ccccc1)C(=O)O [FMLF] (H-FMLF-OH) | 30000
18 | CC(C)[C@H](NC(=O)CN)C(=O)N[C@@H](Cc1ccccc1)C(=O)N[C@@H](Cc1ccc(O)cc1)C(=O)O [GVFY] (H-GVFY-OH) | 30000
19 | CC[C@H](C)[C@H](NC(=O)[C@@H](NC(=O)[C@@H](N)Cc1ccccc1)C(C)C)C(=O)N[C@@H](Cc1ccc(O)cc1)C(=O)O [FVIY] (H-FVIY-OH) | 30000
20 | C[C@H](NC(=O)[C@@H](N)Cc1c[nH]c2ccccc12)C(=O)N[C@@H](Cc1ccccc1)C(=O)N[C@@H](Cc1ccc(O)cc1)C(=O)O [WAFY] (H-WAFY-OH) | 60000
21 | CC[C@H](C)[C@H](N)C(=O)N[C@@H](Cc1ccccc1)C(=O)N[C@H](C(=O)N[C@@H](Cc1ccc(O)cc1)C(=O)O)[C@@H](C)CC [IFIY] (H-IFIY-OH) | 60000
22 | CC(C)C[C@H](NC(=O)[C@H](CC(C)C)NC(=O)[C@@H](N)CC(C)C)C(=O)N[C@@H](CO)C(=O)O [LLLS] (H-LLLS-OH) | 30000
23 | C[C@@H](O)[C@H](NC(=O)[C@@H](N)CO)C(=O)N[C@@H](Cc1ccc(O)cc1)C(=O)N[C@@H](Cc1ccccc1)C(=O)O [STYF] (H-STYF-OH) | 60000
24 | CC[C@H](C)[C@H](N)C(=O)N[C@@H](CCSC)C(=O)N[C@H](C(=O)N[C@H](C(=O)O)C(C)C)C(C)C [IMVV] (H-IMVV-OH) | 30000
25 | CC(C)C[C@H](N)C(=O)N[C@H](C(=O)N[C@@H](Cc1c[nH]cn1)C(=O)N[C@@H](Cc1ccccc1)C(=O)O)C(C)C [LVHF] (H-LVHF-OH) | 30000
26 | N[C@@H](Cc1ccccc1)C(=O)N[C@@H](Cc1ccccc1)C(=O)N[C@@H](Cc1ccc(O)cc1)C(=O)N[C@@H](Cc1ccc(O)cc1)C(=O)O [FFYY] (H-FFYY-OH) | 30000

Same assay, conditions: peptide concentration 30 mM; vial-inverting method; 1 = hydrogel, 0 = no hydrogel

Row | Compound | GELATION
27 | CC(C)C[C@H](NC(=O)[C@@H](NC(=O)[C@@H](N)CC(C)C)[C@@H](C)O)C(=O)N[C@@H](Cc1ccccc1)C(=O)O [LTLF] (H-LTLF-OH) | 1
28 | N[C@@H](CO)C(=O)N[C@@H](Cc1ccc(O)cc1)C(=O)N[C@@H](Cc1ccccc1)C(=O)N[C@@H](Cc1ccccc1)C(=O)O [SYFF] (H-SYFF-OH) | 1
29 | CSCC[C@H](NC(=O)[C@@H](N)Cc1ccccc1)C(=O)N[C@@H](CC(C)C)C(=O)N[C@@H](Cc1ccccc1)C(=O)O [FMLF] (H-FMLF-OH) | 1
30 | CC(C)[C@H](NC(=O)CN)C(=O)N[C@@H](Cc1ccccc1)C(=O)N[C@@H](Cc1ccc(O)cc1)C(=O)O [GVFY] (H-GVFY-OH) | 1
31 | CC[C@H](C)[C@H](NC(=O)[C@@H](NC(=O)[C@@H](N)Cc1ccccc1)C(C)C)C(=O)N[C@@H](Cc1ccc(O)cc1)C(=O)O [FVIY] (H-FVIY-OH) | 1
32 | CC(C)C[C@H](NC(=O)[C@H](CC(C)C)NC(=O)[C@@H](N)CC(C)C)C(=O)N[C@@H](CO)C(=O)O [LLLS] (H-LLLS-OH) | 1
33 | CC[C@H](C)[C@H](N)C(=O)N[C@@H](CCSC)C(=O)N[C@H](C(=O)N[C@H](C(=O)O)C(C)C)C(C)C [IMVV] (H-IMVV-OH) | 1
34 | CC(C)C[C@H](N)C(=O)N[C@H](C(=O)N[C@@H](Cc1c[nH]cn1)C(=O)N[C@@H](Cc1ccccc1)C(=O)O)C(C)C [LVHF] (H-LVHF-OH) | 1
35 | N[C@@H](Cc1ccccc1)C(=O)N[C@@H](Cc1ccccc1)C(=O)N[C@@H](Cc1ccc(O)cc1)C(=O)N[C@@H](Cc1ccc(O)cc1)C(=O)O [FFYY] (H-FFYY-OH) | 1

Same assay, conditions: peptide concentration 60 mM; vial-inverting method; 1 = hydrogel, 0 = no hydrogel

Row | Compound | GELATION
36 | C[C@H](NC(=O)[C@@H](N)CO)C(=O)N[C@@H](Cc1c[nH]c2ccccc12)C(=O)N[C@@H](Cc1ccccc1)C(=O)O [SAWF] (H-SAWF-OH) | 1
37 | C[C@H](NC(=O)[C@@H](N)Cc1c[nH]c2ccccc12)C(=O)N[C@@H](Cc1ccccc1)C(=O)N[C@@H](Cc1ccc(O)cc1)C(=O)O [WAFY] (H-WAFY-OH) | 1
38 | CC[C@H](C)[C@H](N)C(=O)N[C@@H](Cc1ccccc1)C(=O)N[C@H](C(=O)N[C@@H](Cc1ccc(O)cc1)C(=O)O)[C@@H](C)CC [IFIY] (H-IFIY-OH) | 1
39 | C[C@@H](O)[C@H](NC(=O)[C@@H](N)CO)C(=O)N[C@@H](Cc1ccc(O)cc1)C(=O)N[C@@H](Cc1ccccc1)C(=O)O [STYF] (H-STYF-OH) | 1

Same assay, conditions: vial-inverting method; representative hydrogels pH between 7.0 to 7.5

Row | Compound | hydrogel formation (in words)
40 | CC[C@H](C)[C@H](NC(=O)[C@@H](NC(=O)[C@@H](N)Cc1ccccc1)C(C)C)C(=O)N[C@@H](Cc1ccc(O)cc1)C(=O)O [FVIY] (H-FVIY-OH) | hydrogels
41 | CC[C@H](C)[C@H](N)C(=O)N[C@@H](CCSC)C(=O)N[C@H](C(=O)N[C@H](C(=O)O)C(C)C)C(C)C [IMVV] (H-IMVV-OH) | can form hydrogel

Test: Transmission electron microscope (negative staining) of peptide assemblies
Details: TEM, negative staining with uranyl acetate, 120 kV; line of the table gives 30 mM
Procedure: We used the negative staining technique to observe the morphologies formed by peptides. A micropipette was used to load 10 μL of sample solution to a carbon-coated copper grid, and we used a piece of filter paper to remove the excess solution. After rinsing the grid with the deionized water, we used uranyl acetate to stain the sample for 1 minute and then rinsed the grid with deionized water again.

Row | Compound | Morphology
42 | CC(C)C[C@H](NC(=O)[C@@H](NC(=O)[C@@H](N)CC(C)C)[C@@H](C)O)C(=O)N[C@@H](Cc1ccccc1)C(=O)O [LTLF] (H-LTLF-OH) | sheet
43 | N[C@@H](CO)C(=O)N[C@@H](Cc1ccc(O)cc1)C(=O)N[C@@H](Cc1ccccc1)C(=O)N[C@@H](Cc1ccccc1)C(=O)O [SYFF] (H-SYFF-OH) | fibre
44 | CSCC[C@H](NC(=O)[C@@H](N)Cc1ccccc1)C(=O)N[C@@H](CC(C)C)C(=O)N[C@@H](Cc1ccccc1)C(=O)O [FMLF] (H-FMLF-OH) | sheet
45 | CC(C)[C@H](NC(=O)CN)C(=O)N[C@@H](Cc1ccccc1)C(=O)N[C@@H](Cc1ccc(O)cc1)C(=O)O [GVFY] (H-GVFY-OH) | fibre
46 | CC(C)C[C@H](NC(=O)[C@H](CC(C)C)NC(=O)[C@@H](N)CC(C)C)C(=O)N[C@@H](CO)C(=O)O [LLLS] (H-LLLS-OH) | sheet
47 | CC[C@H](C)[C@H](N)C(=O)N[C@@H](CCSC)C(=O)N[C@H](C(=O)N[C@H](C(=O)O)C(C)C)C(C)C [IMVV] (H-IMVV-OH) | aggregates
48 | CC(C)C[C@H](N)C(=O)N[C@H](C(=O)N[C@@H](Cc1c[nH]cn1)C(=O)N[C@@H](Cc1ccccc1)C(=O)O)C(C)C [LVHF] (H-LVHF-OH) | hybrid(sphere+fibre)
49 | N[C@@H](Cc1ccccc1)C(=O)N[C@@H](Cc1ccccc1)C(=O)N[C@@H](Cc1ccc(O)cc1)C(=O)N[C@@H](Cc1ccc(O)cc1)C(=O)O [FFYY] (H-FFYY-OH) | needle

Same assay, conditions: TEM, negative staining with uranyl acetate, 120 kV; line of the table gives 60 mM

Row | Compound | Morphology
50 | C[C@H](NC(=O)[C@@H](N)CO)C(=O)N[C@@H](Cc1c[nH]c2ccccc12)C(=O)N[C@@H](Cc1ccccc1)C(=O)O [SAWF] (H-SAWF-OH) | fibre
51 | C[C@H](NC(=O)[C@@H](N)Cc1c[nH]c2ccccc12)C(=O)N[C@@H](Cc1ccccc1)C(=O)N[C@@H](Cc1ccc(O)cc1)C(=O)O [WAFY] (H-WAFY-OH) | fibre
52 | CC[C@H](C)[C@H](N)C(=O)N[C@@H](Cc1ccccc1)C(=O)N[C@H](C(=O)N[C@@H](Cc1ccc(O)cc1)C(=O)O)[C@@H](C)CC [IFIY] (H-IFIY-OH) | hybrid(particle+fibre)
53 | C[C@@H](O)[C@H](NC(=O)[C@@H](N)CO)C(=O)N[C@@H](Cc1ccc(O)cc1)C(=O)N[C@@H](Cc1ccccc1)C(=O)O [STYF] (H-STYF-OH) | hybrid(sphere+fibre)

Same assay, conditions: aqueous solution or hydrogel; negative staining

Row | Compound | morphology by TEM (in words)
54 | CC[C@H](C)[C@H](NC(=O)[C@@H](NC(=O)[C@@H](N)Cc1ccccc1)C(C)C)C(=O)N[C@@H](Cc1ccc(O)cc1)C(=O)O [FVIY] (H-FVIY-OH) | entangled nanofibers

— article PMC10313671, “Accelerating the prediction and discovery of peptide hydrogels with human-in-the-loop” (Nature Communications, 2023)
